Assay results: PMC4005005 (ChemMedChem, 2014)
pIC50: −log10 of the molar value.

Molecular target: T1, G9a (Homo sapiens, UniProt Q96KQ7)
T1 sequence (Q96KQ7 2-1210): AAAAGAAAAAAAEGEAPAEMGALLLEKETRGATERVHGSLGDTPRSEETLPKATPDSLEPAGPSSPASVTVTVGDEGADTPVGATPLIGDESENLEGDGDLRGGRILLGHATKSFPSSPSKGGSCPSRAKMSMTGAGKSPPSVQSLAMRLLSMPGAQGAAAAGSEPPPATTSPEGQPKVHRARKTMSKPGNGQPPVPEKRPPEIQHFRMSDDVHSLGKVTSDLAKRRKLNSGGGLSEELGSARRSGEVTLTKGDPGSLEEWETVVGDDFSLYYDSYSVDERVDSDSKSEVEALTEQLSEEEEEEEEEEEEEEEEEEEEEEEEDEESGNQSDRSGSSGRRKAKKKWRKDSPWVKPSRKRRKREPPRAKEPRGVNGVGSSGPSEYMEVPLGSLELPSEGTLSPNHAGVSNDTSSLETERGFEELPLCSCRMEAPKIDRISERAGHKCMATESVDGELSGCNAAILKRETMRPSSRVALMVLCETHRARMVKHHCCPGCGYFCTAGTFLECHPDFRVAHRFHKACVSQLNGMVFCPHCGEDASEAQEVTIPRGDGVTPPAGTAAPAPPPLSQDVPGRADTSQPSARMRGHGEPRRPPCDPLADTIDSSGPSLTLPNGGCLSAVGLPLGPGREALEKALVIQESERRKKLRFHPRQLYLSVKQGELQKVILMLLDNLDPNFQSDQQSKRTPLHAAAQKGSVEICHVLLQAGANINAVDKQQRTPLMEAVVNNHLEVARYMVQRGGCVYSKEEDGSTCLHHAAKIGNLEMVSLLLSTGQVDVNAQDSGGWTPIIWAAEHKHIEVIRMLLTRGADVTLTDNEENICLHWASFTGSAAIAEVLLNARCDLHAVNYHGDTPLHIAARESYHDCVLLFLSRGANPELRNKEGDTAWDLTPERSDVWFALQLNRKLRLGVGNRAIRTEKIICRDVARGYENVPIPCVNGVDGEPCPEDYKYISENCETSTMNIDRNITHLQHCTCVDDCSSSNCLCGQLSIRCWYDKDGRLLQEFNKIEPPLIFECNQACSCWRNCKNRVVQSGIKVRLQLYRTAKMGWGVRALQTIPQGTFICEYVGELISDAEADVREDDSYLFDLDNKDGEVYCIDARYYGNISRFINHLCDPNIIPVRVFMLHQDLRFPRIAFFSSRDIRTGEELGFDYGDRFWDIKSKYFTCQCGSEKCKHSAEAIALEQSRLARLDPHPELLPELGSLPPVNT
Assay: scintillation proximity assay of 3H-methyl transfer to histone peptide
Assay type: biochemical

- pIC50: > 8.60
Compound: COc1cc2c(NC3CCN(CCCc4cn(CCOCCOCCOCCNC(=O)CCCC[C@H]5SC[C@H]6NC(=O)N[C@H]65)nn4)CC3)nc(C3CCCCC3)nc2cc1OCCCN1CCCC1 [compound 10, UNC0965]
